Results: patent publication US9579358B2, “Compositions for binding to amyloid proteins” (LANCASTER UNIVERSITY BUSINESS ENTERPRISES LIMITED, priority 2011, dated 2017)
Like-named read-outs stand apart in the source and are kept apart here.

Columns and labels:
Aβ42 = target: T1, Aβ42 (Homo sapiens, UniProt P05067); test: Thioflavin T (ThT) assay for Aβ fibrils; assay type: biochemical; settings: Table 3, 1:2 molar ratio to Aβ
T1 construct: Recombinant Aβ42, Ultrapure, was purchased from rPeptide, Bogart, Ga., USA; purchased rPeptide, Bogart, Ga., USA
Experimental: This method was the same as that published previously. Briefly, 60 μl samples of solutions containing Aβ42 (25 μM), ThT (15 μM) and between 0 and 125 μM RI-OR2 or RI-OR2-TAT, in 10 mM phosphate buffered saline (PBS), pH 7.4, were incubated in sealed, black, clear-bottomed 384-well plates (Corning). ThT fluorescence was monitored every 10 mins (λex=442 nm, λem=483 nm) for 48 h at 30° C. in a Biotek Synergy 2 plate reader.

[1] = target: immobilized Aβ1-42 monomers and fibrils (Homo sapiens, UniProt P05067); settings: cited from earlier work
Chain of immobilized Aβ1-42 monomers and fibrils (P05067 672-713 limits assumed): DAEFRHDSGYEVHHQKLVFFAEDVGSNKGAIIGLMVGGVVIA

T1 sequence (P05067 672-713 limits assumed): as above

Ac-rGffvlkGr-NH2 [RI-OR2, reference compound]
% of control (Aβ42; 48 hrs, Aβ alone = 100): 35%
RFU at 48 hours (Aβ42; Aβ 25 μM): 72265 RFU
Kd ([1]; previously reported value, read-out: Kd, binding to Aβ42 fibrils): 9.5 µM
Kd ([1]; published SPR data (28), read-out: binding affinity (Kd) for interaction with Aβ monomers and fibrils): 25 to 30 µM
